ChEMBL document CHEMBL1140595, “Hybrid molecules between distamycin A and active moieties of antitumor agents” (Bioorg Med Chem, 2007)
pIC50: −log10 of the molar value.

What was measured:
L1210 = experiment: Antiproliferative activity against mouse L1210 cells; assay type: functional, cell-based
FM3A = experiment: Antiproliferative activity against mouse FM3A cells; assay type: functional, cell-based
MOLT-4 = experiment: Antiproliferative activity against human Molt/4 cells; assay type: functional, cell-based
CCRF-CEM [1] = experiment: Antiproliferative activity against human CEM cells; assay type: functional, cell-based
[2] = Inhibition of telomerase activity in human melanoma cell extracts
K562 = experiment: Antiproliferative activity against human K562 cells; assay type: functional, cell-based
Daudi = experiment: Antiproliferative activity against human Daudi cells; assay type: functional, cell-based
WIL2-NS = experiment: Antiproliferative activity against human Wil2-NS cells; assay type: functional, cell-based
CCRF-SB = experiment: Antiproliferative activity against human CCRF-SB cells; assay type: functional, cell-based
Raji = experiment: Antiproliferative activity against human Raji cells; assay type: functional, cell-based
CCRF-CEM [3] = experiment: Antiproliferative activity against human CCRF-CEM cells; assay type: functional, cell-based
Jurkat = experiment: Antiproliferative activity against human Jurkat cells; assay type: functional, cell-based

pIC50 (L1210)	pIC50 (MOLT-4)	pIC50 (CCRF-CEM [1])	pIC50 (K562)	Structure (SMILES)	pIC50 (FM3A)	other results
5.29	5.00	5.00	–	C=C1CC(COc2cc(C(=O)Nc3cc(C(=O)Nc4cc(C(=O)Nc5cc(C(=O)NCCNC(=N)N)n(C)c5)n(C)c4)n(C)c3)n(C)n2)(c2ccccc2)OC1=O (centres undefined)	4.69	–
5.38	5.28	5.01	–	C=C1CC(COc2cc(C(=O)Nc3cc(C(=O)Nc4cc(C(=O)Nc5cc(C(=O)NCCC(=N)N)n(C)c5)n(C)c4)n(C)c3)n(C)n2)(c2ccccc2)OC1=O (centres undefined)	4.76	–
5.02	4.91	4.80	–	C=C1CC(C)(COc2cc(C(=O)Nc3cc(C(=O)Nc4cc(C(=O)Nc5cc(C(=O)NCCNC(=N)N)n(C)c5)n(C)c4)n(C)c3)n(C)n2)OC1=O (centres undefined)	4.37	–
4.48	4.19	4.02	–	C=C1CC(COc2cc(C(=O)Nc3cc(C(=O)Nc4cc(C(=O)Nc5cc(C(=O)NCCC(=N)N)n(C)c5)n(C)c4)n(C)c3)n(C)n2)(c2ccc(-c3ccccc3)cc2)OC1=O (centres undefined)	4.66	–
4.57	4.15	4.45	–	C=C1CC(C)(CCCCCCCOc2cc(C(=O)Nc3cc(C(=O)Nc4cc(C(=O)Nc5cc(C(=O)NCCC(=N)N)n(C)c5)n(C)c4)n(C)c3)n(C)n2)OC1=O (centres undefined)	4.20	–
5.39	5.34	5.24	–	C=C1CC(COc2cc(C(=O)Nc3cc(C(=O)Nc4cc(C(=O)NCCC(=N)N)n(C)c4)n(C)c3)n(C)n2)(c2ccccc2)OC1=O (centres undefined)	4.73	–
5.10	5.17	5.02	–	C=C1CC(C)(COc2cc(C(=O)Nc3cc(C(=O)Nc4cc(C(=O)NCCC(=N)N)n(C)c4)n(C)c3)n(C)n2)OC1=O (centres undefined)	4.56	–
3.71	3.60	3.59	–	C=C1CC(C)(CCCOc2cc(C(=O)Nc3cc(C(=O)Nc4cc(C(=O)Nc5cc(C(=O)NCCC(=N)N)n(C)c5)n(C)c4)n(C)c3)n(C)n2)OC1=O (centres undefined)	3.61	–
4.60	4.10	4.06	–	C=C1CC(COc2cc(C(=O)Nc3cc(C(=O)Nc4cc(C(=O)Nc5cc(C(=O)NCCC(=N)N)n(C)c5)n(C)c4)n(C)c3)n(C)n2)(c2ccc(Cl)cc2)OC1=O (centres undefined)	4.19	–
3.96	3.97	4.13	–	C=C1CC(C)(CCCCCOc2cc(C(=O)Nc3cc(C(=O)Nc4cc(C(=O)Nc5cc(C(=O)NCCC(=N)N)n(C)c5)n(C)c4)n(C)c3)n(C)n2)OC1=O (centres undefined)	4.04	–
4.90	4.80	4.72	–	C=C1CC(COc2cc(C(=O)Nc3cc(C(=O)NCCC(=N)N)n(C)c3)n(C)n2)(c2ccccc2)OC1=O (centres undefined)	4.44	–
4.83	4.83	4.80	–	C=C1CC(C)(COc2cc(C(=O)Nc3cc(C(=O)Nc4cc(C(=O)Nc5cc(C(=O)NCCC(=N)N)n(C)c5)n(C)c4)n(C)c3)n(C)n2)OC1=O (centres undefined)	4.31	–

More lines, now with the values behind:

Structure (SMILES)	pIC50 (L1210)	pIC50 (MOLT-4)	pIC50 (CCRF-CEM [1])	pIC50 (K562)	pIC50 (FM3A)	other results
Cn1cc(NC(=O)c2cc(NC(=O)c3cc(NC=O)cn3C)cn2C)cc1C(=O)NCCC(=N)N [STALLIMYCIN]	3.88	4.19	3.95	–	3.82	–
Cn1cc(NC(=O)c2cc(NC(=O)c3cc(NC(=O)c4cc(NC(=O)c5cc(NC=O)cn5C)cn4C)cn3C)cn2C)cc1C(=O)NCCC(=N)N	–	–	–	–	–	pIC50 [2]: 4.62
COc1cc2c(cc1OCCC(=O)Nc1cc(C(=O)NCCC(=N)N)n(C)c1)N=C[C@@H]1CCCN1C2=O	–	–	–	< 4.00	–	–
CC(C)(C)OC(=O)N1CC2CC23C1=CC(=O)c1c3cnn1Cc1ccccc1 (centres undefined)	5.57	5.07	5.17	–	4.74	pIC50 (Daudi): 5.12
Cc1n[nH]c2c1C13CC1CN(C(=O)OC(C)(C)C)C3=CC2=O (centres undefined)	6.28	5.76	5.90	–	5.85	pIC50 (Daudi): 6.17
COC(=O)C1(O)C(OC)=CC(=O)N1CCCC(=O)Nc1cc(C(=O)Nc2cc(C(=O)Nc3cc(C(=O)NCCCN(C)C)n(C)c3)n(C)c2)n(C)c1 (centres undefined)	< 3.70	–	–	–	–	–
Cn1cc(NC(=O)c2cc(NC(=O)c3cc(NC(=O)[C@@H](N)CS)cn3C)cn2C)cc1C(=O)NCCC(=N)N	–	4.45	–	4.62	–	pIC50 (WIL2-NS): 4.01; pIC50 (CCRF-SB): 4.04; pIC50 (Raji): 4.35; pIC50 (CCRF-CEM [3]): 4.44
Cn1cc(NC(=O)c2cc(NC(=O)c3cc(NC(=O)CCCCCCn4cc(F)c(=O)[nH]c4=O)cn3C)cn2C)cc1C(=O)NCCC(=N)N	–	–	–	4.30	–	–
Cn1cc(NC(=O)c2cc(NC(=O)c3cc(NC(=O)CCCn4cc(F)c(=O)[nH]c4=O)cn3C)cn2C)cc1C(=O)NCCC(=N)N	–	–	–	4.09	–	–
COc1cc2c(cc1O)N=C[C@@H]1CCCN1C2=O	–	–	–	6.00	–	pIC50 (Jurkat): 5.66
Cn1cc(NC(=O)c2cc(NC(=O)c3cc(NC(=O)CCCCn4cc(F)c(=O)[nH]c4=O)cn3C)cn2C)cc1C(=O)NCCC(=N)N	–	–	–	3.82	–	–
Cn1cc(NC(=O)c2cc(NC(=O)c3cc(NC(=O)CCCCCn4cc(F)c(=O)[nH]c4=O)cn3C)cn2C)cc1C(=O)NCCC(=N)N	–	–	–	4.30	–	–
Cn1cc(NC(=O)c2cc(NC(=O)c3cc(NC(=O)Cn4cc(F)c(=O)[nH]c4=O)cn3C)cn2C)cc1C(=O)NCCC(=N)N	–	–	–	< 3.70	–	–
C=C1CC(C)(COc2cc(C(=O)Nc3cc(C(=O)NCCC(=N)N)n(C)c3)n(C)n2)OC1=O (centres undefined)	4.61	4.65	4.58	–	4.49	–
Cn1cc(NC(=O)c2cc(NC(=O)c3cc(NC(=O)CCn4cc(F)c(=O)[nH]c4=O)cn3C)cn2C)cc1C(=O)NCCC(=N)N	–	–	–	4.64	–	–
Cn1cc(NC(=O)c2cc(NC(=O)c3cc(NC(=O)C(N)CN)cn3C)cn2C)cc1C(=O)NCCC(=N)N (centres undefined)	–	4.41	–	4.66	–	pIC50 (WIL2-NS): 3.97; pIC50 (CCRF-SB): 4.01; pIC50 (Raji): 4.37; pIC50 (CCRF-CEM [3]): 4.39
